Laboratory results as given in patent publication US5962531A, “5-aroylnaphthalene derivatives as anti-inflammatory agents” (Syntex (U.S.A.) Inc., priority 1998, dated 1999).
pIC50: −log10 of the molar value.

Legend:
COX I = biological target: T1, COX I (Homo sapiens, UniProt P23219); test: Inhibition of COX I in vitro (radiometric assay, partially purified enzyme); type: biochemical
T1 construct: made in house; baculovirus-infected insect cells according to the cited Barnett et al. 1994 (own knowledge)
Procedure: (§1) The COX I and COX II inhibitory activity of compounds of this invention in vitro was determined using partially purified COX I and COX II enzymes, prepared as described in J. Barnett et. al., Biochim. Biophys.
(§2) COX I and COX II samples were diluted with Tris-HCl buffer (SOmM Tris-HCl, pH 7.9) containing 2 mM EDTA and 10% glycerol and reconstituted by incubating first with 2 mM phenol for 5 minutes and then with 1 micromolar hematin for an additional 5 minutes. 125 μl of the reconstituted COX I or COX II enzyme were preincubated for 10 minutes at room temperature in a shaking water bath with the compounds of the invention dissolved in 2-15 μl of DMSO or the carrier vehicles (control samples). The enzyme reaction was initiated by adding 25 μl of 1-[14 C]arachidonic acid (80,000-100,000 cpm/tube; 20 micromolar final concentration) and the reaction was allowed to continue for an additional 45 seconds. The reaction was terminated by adding 100 μl of 2N HCl and 750 μl water. An aliquot (950 μl) of the reaction mixture was loaded onto a 1 ml C18 Sep-Pak column (J. T. Baker, Phillipsburg, N.J.) which had been previously washed with 2-3 ml methanol and equilibrated with 5-6 ml distilled water. Oxygenated products were quantitatively eluted with 3 ml of acetonitrile/water/acetic acid (50:50:0.1, v/v) and the radioactivity in the eluate determined in a scintillation counter.

COX II = biological target: T2, COX II (Homo sapiens, UniProt P35354); test: Inhibition of COX II in vitro (radiometric assay, partially purified enzyme); type: biochemical
T2 construct: made in house; baculovirus-infected insect cells according to the cited Barnett et al. 1994 (own knowledge)
T2 sequence (P35354 18-604): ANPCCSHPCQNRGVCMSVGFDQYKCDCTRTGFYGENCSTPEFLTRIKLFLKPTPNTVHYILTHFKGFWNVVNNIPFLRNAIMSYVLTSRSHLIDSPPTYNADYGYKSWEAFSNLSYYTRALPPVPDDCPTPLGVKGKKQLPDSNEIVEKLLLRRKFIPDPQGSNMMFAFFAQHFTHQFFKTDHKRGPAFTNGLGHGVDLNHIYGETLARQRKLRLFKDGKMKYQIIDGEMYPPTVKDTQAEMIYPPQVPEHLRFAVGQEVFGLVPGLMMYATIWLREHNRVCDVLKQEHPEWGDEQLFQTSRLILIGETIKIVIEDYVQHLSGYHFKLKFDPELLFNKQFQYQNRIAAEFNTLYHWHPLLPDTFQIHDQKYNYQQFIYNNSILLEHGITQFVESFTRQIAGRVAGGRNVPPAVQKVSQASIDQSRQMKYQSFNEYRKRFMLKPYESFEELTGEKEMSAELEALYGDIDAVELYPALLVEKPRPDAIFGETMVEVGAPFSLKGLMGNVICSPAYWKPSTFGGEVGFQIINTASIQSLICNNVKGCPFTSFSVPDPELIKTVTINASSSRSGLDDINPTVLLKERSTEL
Procedure: as §1, §2

[1] = test system: carrageenan-induced paw edema; test: Inhibition of carrageenan-induced paw edema in the rat; type: in vivo; settings: oral, female rats
Procedure: The anti-inflammatory activity of compounds of this invention was determined by measuring the inhibition of carrageenan-induced paw edema in the rat, using a modification of the method described in Winter C. A. et al., "Carrageenan-Induced Edema in Hind Paw of the Rat as an Assay for Anti-inflammatory Drugs" Proc. Soc. Exp. Biol. Med. 111, 544-547, (1962). This assay has been used as a primary in vivo screen for anti-inflammatoryactivity of most NSAIDs, and is considered predictive of human efficacy. Briefly, test materials were administered orally to female rats in a volume of 1 ml prepared as solutions or suspensions in an aqueous vehicle containing 0.9% sodium chloride, 0.5% sodium carboxymethyl-cellulose, 0.4% polysorbate 80, 0.9% benzyl alcohol and 97.3% distilled water. Control rats received vehicle alone. After 1 h 0.05 ml of a 0.5% solution of Carrageenan (Type IV Lambda, Sigma Chemical Co.) in 0.9% saline was injected into the subplantar region of the right hind paw. Three hours later the rats were euthanized in a carbon dioxide atmosphere; hind paws were removed by severing at the tatso-crural joint; and the left and right paws were weighed. The increase in weight of the right paw over the left paw was obtained for each animal and the mean increases were calculated for each group. The anti-inflammatory activity of the test materials is expressed as the percent inhibition of the increase in hind paw weight of the test group relative to the vehicle dosed control group.
The anti-inflammatory activities (expressed as % inhibition) of some of the compounds of the invention were: […]

PGE2 = test: Inhibition of eicosanoid (prostaglandin E2) synthesis in vivo, carrageenan air-pouch model in rats; design: species or system rat; settings: oral, male rats
Procedure: In this assay, an air-pouch is created in the rat and the PGE2 levels in the air-pouch exudate are measured by enzyme immunoassay. Briefly, male rats were anesthetized using a 60:40 CO2 :O2 mixture and subsequently injected subcutaneously with 20 ml of sterilized air, under aseptic conditions, in the proximal area of the dorsum. This injection of sterile air causes the creation of a subcutaneous "air pouch". The next day, a further 10 ml of sterile air was injected into the previously formed pouch using the same technique. […] Control rats received vehicle alone. After 30 minutes, 5 ml of a 0.5% solution of carrageenan (Sigma, Lambda Type IV) was injected into the air pouch. The rats were euthanized 3 or 6 h after the compound administration. […] The total exudate volume was recorded, and the samples were analyzed for PGE2 and 6-keto PGF1 by ELISA (Titerzyme®, PerSeptive Diagnostics, Boston, Mass.) and TxB2 by radioimmuno assay (New England Nuclear Research, Boston, Mass., Catalog No. NEK-037), according to the manufacturer's directions.
The mean concentrations of PGE2 were calculated for each group. The anti-inflammatory activity of test materials is expressed as the percent inhibition of PGE2 formation in the test group relative to the control group.

Alzheimer's patients = settings: Rogers, J., et. al., Neurology, 43, 1609, (1993); cited from earlier work

T1 sequence (P23219 24-599): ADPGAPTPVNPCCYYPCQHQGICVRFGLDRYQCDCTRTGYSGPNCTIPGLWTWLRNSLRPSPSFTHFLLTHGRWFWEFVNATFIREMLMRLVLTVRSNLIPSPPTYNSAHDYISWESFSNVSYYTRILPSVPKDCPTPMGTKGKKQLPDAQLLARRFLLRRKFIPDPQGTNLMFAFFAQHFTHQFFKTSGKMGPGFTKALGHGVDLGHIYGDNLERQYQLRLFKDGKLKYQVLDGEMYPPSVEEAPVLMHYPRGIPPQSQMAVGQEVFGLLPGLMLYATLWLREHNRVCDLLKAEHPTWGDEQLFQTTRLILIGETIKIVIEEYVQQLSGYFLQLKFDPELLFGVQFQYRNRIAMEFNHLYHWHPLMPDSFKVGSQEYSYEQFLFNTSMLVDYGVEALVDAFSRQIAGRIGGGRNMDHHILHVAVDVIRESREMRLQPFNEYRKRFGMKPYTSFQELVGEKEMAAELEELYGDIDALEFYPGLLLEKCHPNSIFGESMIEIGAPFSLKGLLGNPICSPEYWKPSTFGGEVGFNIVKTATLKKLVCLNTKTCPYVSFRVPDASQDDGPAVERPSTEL

pIC50 (COX I) | pIC50 (COX II) | SMILES | % Inhibition of paw edema ([1]; 30 mg/Kg) | further results
3.36 | 5.11 | CS(=O)(=O)c1ccc2c(C(=O)c3ccccc3)c(O)ccc2c1 [compound 93, 5-benzoyl-6-hydroxy-2-methylsulfonylnaphthalene] | 6.25% | –
4.03 | 6.24 | CS(=O)(=O)c1ccc2c(C(=O)c3ccc(Cl)cc3)c(C#N)ccc2c1 [compound 104, 5-(4-chlorobenzoyl)-6-cyano-2-methylsulfonylnaphthalene] | 33% | % Inhibition of air pouch PGE2 formation (PGE2; 1 mg/Kg): 76.5%
< 4.00 | 6.10 | CS(=O)(=O)c1ccc2c(C(=O)c3ccccc3)c(C#N)ccc2c1 [compound 97, 5-benzoyl-6-cyano-2-methylsulfonylnaphthalene] | 40% | % Inhibition of air pouch PGE2 formation (PGE2; 3 mg/Kg): 90%
4.20 | 6.17 | COc1ccc2cc(S(N)(=O)=O)ccc2c1C(=O)c1cccc(F)c1 [compound 15, 5-(3-fluorobenzoyl)-6-methoxy-2-naphthalenesulfonamide] | – | –
– | – | COc1ccc2cc(S(N)(=O)=O)ccc2c1C(=O)c1ccccc1Br [compound 17] | 19.56% | –
6.05 | 6.15 | N#Cc1ccc2cc(S(N)(=O)=O)ccc2c1C(=O)c1ccc(F)cc1 [compound 64, 5-(4-fluorobenzoyl)-6-cyano-2-naphthalenesulfonamide] | – | % Inhibition of air pouch PGE2 formation (PGE2; 0.5 mg/Kg): 50%; % Inhibition of paw edema ([1]; 6 mg/Kg): 30%
6.34 | 6.25 | CCOc1ccc2cc(S(N)(=O)=O)ccc2c1C(=O)c1ccc(F)cc1 [compound 5] | 27.49% | –
3.09 | 5.61 | COc1ccc2cc(S(C)(=O)=O)ccc2c1C(=O)c1ccccc1 [compound 94, 5-benzoyl-6-methoxy-2-methylsulfonylnaphthalene] | – | % Inhibition of air pouch PGE2 formation (PGE2; 10 mg/Kg): 17.6%
< 4.00 | 6.30 | CS(=O)(=O)c1ccc2c(C(=O)c3ccccc3F)c(C#N)ccc2c1 [compound 99, 5-(2-fluorobenzoyl)-6-cyano-2-methylsulfonylnaphthalene] | – | % Inhibition of air pouch PGE2 formation (PGE2; 3 mg/Kg): 86%; % Inhibition of paw edema ([1]; 10 mg/Kg): 38%
5.22 | 6.35 | COc1ccc2cc(S(N)(=O)=O)ccc2c1C(=O)c1ccc(F)cc1F [compound 20] | 33.85% | % Inhibition of air pouch PGE2 formation (PGE2; 10 mg/Kg): 100%
4.04 | 6.04 | COc1ccc2cc(S(C)(=O)=O)ccc2c1C(=O)c1ccc(F)cc1 [compound 91, 5-(4-fluorobenzoyl)-6-methoxy-2-methylsulfonylnaphthalene] | – | % Inhibition of air pouch PGE2 formation (PGE2; 30 mg/Kg): 58.1%; % Inhibition of paw edema ([1]; 10 mg/Kg): 29.48%
– | – | COc1ccc2cc(S(N)(=O)=O)ccc2c1C(=O)c1ccccc1 [compound 23, 5-benzoyl-6-methoxy-2-naphthalenesulfonamide] | – | % Inhibition of air pouch PGE2 formation (PGE2; 10 mg/Kg): 70.7%
4.70 | 6.29 | COc1ccc2cc(S(N)(=O)=O)ccc2c1C(=O)c1ccc(F)cc1 [compound 1, 5-(4-fluorobenzoyl)-6-methoxy-2-naphthalenesulfonamide] | – | % Inhibition of air pouch PGE2 formation (PGE2; 10 mg/Kg): 92%; % Inhibition of paw edema ([1]; 10 mg/Kg): 29.94%
< 4.00 | 6.60 | CS(=O)(=O)c1ccc2c(C(=O)c3ccc(Cl)cc3)c(Cl)ccc2c1 [compound 100] | – | % Inhibition of air pouch PGE2 formation (PGE2; 3 mg/Kg): 63%
– | – | COc1ccc2c(c1)c(CC(=O)O)c(C)n2C(=O)c1ccc(Cl)cc1 [Indomethacin, reference compound] | – | inhibition of cognitive decline of Alzheimer's patients (Alzheimer's patients): inhibit the cognitive decline of Alzheimer's patients; % Inhibition of air pouch PGE2 formation (PGE2; 2-5 mg/Kg): > 70%
4.32 | 7.12 | COc1ccc2cc(S(N)(=O)=O)ccc2c1C(=O)c1ccccc1F [compound 14, 5-(2-fluorobenzoyl)-6-methoxy-2-naphthalenesulfonamide] | – | % Inhibition of air pouch PGE2 formation (PGE2; 10 mg/Kg): 58.8%
< 4.00 | 6.10 | CS(=O)(=O)c1ccc2c(C(=O)c3ccc(F)cc3)c(C#N)ccc2c1 [compound 96, 5-(4-fluorobenzoyl)-6-cyano-2-methylsulfonylnaphthalene] | 38% | % Inhibition of air pouch PGE2 formation (PGE2; 1 mg/Kg): 90%
3.19 | 5.23 | CS(=O)(=O)c1ccc2c(C(=O)c3ccc(F)cc3)c(O)ccc2c1 [compound 92, 5-(4-fluorobenzoyl)-6-hydroxy-2-methylsulfonylnaphthalene] | 19.88% | –
3.52 | 6.15 | Cc1ccc2cc(S(N)(=O)=O)ccc2c1C(=O)c1ccc(F)cc1 [compound 65, 5-(4-fluorobenzoyl)-6-methyl-2-naphthalenesulfonamide] | – | % Inhibition of air pouch PGE2 formation (PGE2; 2 mg/Kg): 50%; % Inhibition of paw edema ([1]; 12 mg/Kg): 30%
4.01 | 5.82 | COc1ccc2cc(S(C)(=O)=O)ccc2c1C(=O)c1ccc(C)cc1 [compound 103] | – | –
5.55 | 6.08 | COc1ccc2cc(S(N)(=O)=O)ccc2c1C(=O)c1ccc(C)cc1 [compound 4, 5-(4-methylbenzoyl)-6-methoxy-2-naphthalenesulfonamide] | – | % Inhibition of air pouch PGE2 formation (PGE2; 10 mg/Kg): 74.6%; % Inhibition of paw edema ([1]; 10 mg/Kg): 26.41%
4.39 | 5.70 | COc1ccc2cc(S(N)(=O)=O)ccc2c1C(=O)c1ccc(F)cc1C(F)(F)F [compound 42] | – | –
4.00 | 6.52 | NS(=O)(=O)c1ccc2c(C(=O)c3ccc(F)cc3)c(Cl)ccc2c1 [compound 66, 5-(4-fluorobenzoyl)-6-chloro-2-naphthalenesulfonamide] | – | % Inhibition of air pouch PGE2 formation (PGE2; 1 mg/Kg): 50%; % Inhibition of paw edema ([1]; 12 mg/Kg): 30%
3.00 | 5.56 | CS(=O)(=O)c1ccc2c(C(=O)c3ccc(F)cc3)cccc2c1 [compound 95, 5-(4-fluorobenzoyl)-2-methylsulfonylnaphthalene] | 15.5% | –
